The source of these data is patent publication US9102667B2, “N-arylaminomethylene benzothiophenones for treatment of cardiovascular disease” (FORSCHUNGSVERBUND BERLIN E.V., priority 2011, dated 2015).

SMILES strings stand for the structures.

Sequence of AKAP-PKA interaction (P13861 2-404 limits assumed): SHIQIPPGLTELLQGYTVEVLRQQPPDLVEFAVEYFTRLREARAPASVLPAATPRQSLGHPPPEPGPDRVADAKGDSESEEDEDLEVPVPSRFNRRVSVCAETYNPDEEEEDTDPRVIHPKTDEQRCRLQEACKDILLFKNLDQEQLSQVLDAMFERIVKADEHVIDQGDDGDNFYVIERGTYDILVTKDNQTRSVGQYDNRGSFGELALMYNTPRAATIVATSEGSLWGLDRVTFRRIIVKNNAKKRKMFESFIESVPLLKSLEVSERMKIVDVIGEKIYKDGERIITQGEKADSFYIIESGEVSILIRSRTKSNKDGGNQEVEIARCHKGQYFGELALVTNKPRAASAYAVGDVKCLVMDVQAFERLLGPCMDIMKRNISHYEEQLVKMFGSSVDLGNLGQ

One assay deals with AKAP-PKA interaction (Homo sapiens, UniProt P13861). The assay is described as follows: AKAP-PKA interaction (disruption) assays of Examples 1-3: alpha screen, surface plasmon resonance, ELISA (combined classification). In kind it is binding. The note with it: absolute values stated in structure-activity text; method not specified; read-out: IC50. How it is done:
The inhibition of the interaction of the alpha RII subunit of protein kinase A with AKAP18-alpha by the compounds according to the invention is determined as follows:
The experiment measures the suitability of candidate compounds for the inhibition of the interaction between AKAP and PKA. An AKAP-GST fusion construct is immobilized on glutathione donor beads and His-RII-alpha on Ni-chelate acceptor beads. To the extent that the partners interact, singlet oxygen from the donor beads becomes free and activates the fluorescence emission of the acceptor beads. The fluorescence emission determined in the microplate reader is proportional to the intensity of interaction of the protein partners. The IC50 is determined from the results of the measurement of several concentrations of one candidate compound.
The details of the process were as follows: Two protein Solutions A and B are produced in a buffer (phosphate NaCl buffer, 0.1% polysorbate 80, 0.1% [=1 mg/ml BSA]). These contain (A) the histidine-6-tagged fusion construct RII-alpha-His (3.125 nmol/l) and (B) the glutathione-S-transferase-tagged fusion construct GST-AKAP18-alpha-d2-10 (6.25 nmol/l). One volume unit each of protein solution and bead suspension are incorporated, specifically Solution A of the His6-tagged protein with Ni-chelate bead suspension and Solution B of the GST-fusion protein with glutathione beads (Perkin Elmer Product No. 6765302), and in doing so the concentrations are selected according to the manufacturers information. The Mixtures A and B obtained are incubated for one hour at room temperature (RT) in the dark.
Then, 5 μl of Mixture A is laid out for each hole on a 384-hole microtiter plate, and then to start with 0.5 μl of a solution of the candidate compound in DMSO is added and then 5 μl of Mixture B. The resulting reaction mixture is incubated 1 h at RT in the dark. Then, the reaction is tempered to 28.5° C., and the emitter intensity of the acceptor is determined in a microtiter plate reader after excitation of the donor at 680 nm.
The relative inhibition of the AKAP-PKA interaction is calculated following the formula: 1−(xc−y)/(z−y) where: X=average of readings (n=3) at concentration c; Y=average of measurement data from bead-bead check (n=6); Z=average of measurement data from protein-protein check (n=6). Results:
Surface plasmon resonance analyses for competition in solution were performed with streptavidin-coated sensor chips (GE Healthcare, Uppsala, Sweden). The N-terminal biotinylated peptide AKAP18d-L314E was used, which is a variant of the RH-binding domains of AKAP18δ (Hundsrucker et al., Biochem. J. 396, 297-306, [2006]). The binding of the regulatory subunit of the human PKAII-α or RII-β onto the peptide surface of the AKAP18δ-L314E, or the inhibition of this binding to RII by the compounds of the invention, was measured on a Biacaore 3000 machine (Biacore/GE Healthcare) as previously described (Henn et al., J Biol Chem 279, 26654-26665 [2004]). The compounds were injected for 60 sec at a flow rate of 30 μl/min, and the dissociation phase was measured for 180 sec.
Multititer plates (Corning B.V. Life Sciences, Schiphol-Rijk, Netherlands) were coated with recombinantly produced PKA RIIα (15 ng/hole) by incubation with phosphate buffer containing protease inhibitors (1 h, 22° C.). The plate was then blocked with lactoprotein.
GST-AKA7δ (Hundsrucker et al., Biochem. J. 396, 297-306, [2006]; 15 ng/well) was incubated with and without candidate compounds on the plate for 1 h at 22° C. After washing, it was incubated with antibodies (rabbit) against AKA7δ (A18δ3) and then with a peroxidase-conjugated antirabbit antibody and developed with dye substrate (LumiLight Western Blotting Substrate, Roche Diagnostics, Mannheim, Germany). Luminescence activity was determined in a microplate reader (GeniosPro, Tecan, Durham, N.C., United States) at 10 msec integration.
In the case of `O=C1/C(=C/Nc2ncc[nH]2)Sc2ccccc21` [T2/1, (2Z)-2-[(1H-imidazole-2-ylamino)methylene]benzothiophene-3-one], the IC50 was approximately 80 µM. The same measure, in the same setting: under `O=C1/C(=C/Nc2nccs2)Sc2ccccc21` [T2/6, (2Z)-2-[(thiazole-2-ylamino)methylene]benzothiophene-3-one] stands approximately 80 µM; under `O=C1/C(=C/Nc2ncc([N+](=O)[O-])s2)Sc2ccccc21` [T2/12, (2Z)-2-[[(5-nitrothiazole-2-yl)amino]methylene]benzothiophene-3-one], 1 to 5 µM.

The same assay, now with this note: alkyl substituent on heteroaromatic pentacycle.
`Cc1csc(N/C=C2\Sc3ccccc3C2=O)n1` [T2/10, (2Z)-2-[[(4-methylthiazole-2-yl)amino]methylene]benzothiophene-3-one]: the “IC50 relative to that of the unsubstituted mother compound” value is given as “about 50%”.

Staying with this assay, now noted: assays of Examples 1-3.
As to `O=C1/C(=C\Nc2cccc3ccccc23)Sc2ccccc21` [T2/39, (2e)-2-[(1-naphthylamino)methylene]benzothiophene-3-one], the “Activity in AKAP-PKA interaction assays (in words)” value is listed as “barely detectable activity”.

The assay is the same for the next values; noted with them: class from IC50 values in assays of Examples 1, 2 or 3.
`COC(=O)c1cnc(N/C=C2\Sc3ccccc3C2=O)s1` [T2/17, 2-[[(z)-(3-oxobenzothiophene-2-ylidene)methyl]amino]thiazole-5-carboxylic acid methylester]: the “Activity (IC50 class)” value is 2-[[(z)-(3-oxobenzothiophene-2-ylidene)methyl]amino]thiazole-5-carboxylic acid methylester Activity: A(A). The same measure, in the same setting: under `N=C(N)c1cnc(N/C=C2\Sc3ccccc3C2=O)s1` [T2/21, 2-[[(Z)-(3-oxobenzothiophen-2-ylidene)methyl]amino]thiazole-5-carboxamidine] stands 2-[[(Z)-(3-oxobenzothiophen-2-ylidene)methyl]amino]thiazole-5-carboxamidine Activity: A/B.

Consider `O=C1/C(=C/Nc2nc3ccccc3s2)Sc2ccccc21` [T2/23, (2Z)-2-[(1,3-benzothiazol-2-ylamino)methylene]-benzothiophen-3-one], for which the “Activity (IC50 class)” value is “(2Z)-2-[(1,3-benzothiazol-2-ylamino)methylene]- benzothiophen-3-one Activity A/B”.

Staying with this assay, now noted: class from IC50 values in assays of Examples 1, 2 or 3; read-out: Activity (IC50 class).
On to `O=C1/C(=C/Nc2ncc[nH]2)Sc2ccccc21` [T2/1, (2Z)-2-[(1H-imidazole-2-ylamino)methylene]benzothiophene-3-one], for which the IC50 is less than 150 µM. The same measure, in the same setting: next, `O=C1/C(=C/Nc2nc3ccccc3[nH]2)Sc2ccccc21` [T2/2, (2Z)-2-[(1H-benzimidazole-2-ylamino)methylene]benzothiophene-3-one]: less than 150 µM; `Cn1c(N/C=C2\Sc3ccccc3C2=O)nc2ccccc21` [T2/3, (2Z)-2-[[(1-methylbenzimidazole-2-yl)amino]methylene]benzothiophene-3-one]: less than 150 µM. On the same count and under the same terms, next, `Cc1coc(N/C=C2\Sc3ccccc3C2=O)n1` [T2/4, (2Z)-2-[[(4-methyloxazole-2-yl)amino]methylene]benzothiophene-3-one]: less than 50 µM. The same measure, in the same setting: under `O=C1/C(=C/Nc2nc3cc(Cl)ccc3o2)Sc2ccccc21` [T2/5, (2Z)-2-[[(5-chloro-1,3-benzoxazole-2-yl)amino]methylene]benzothiophene-3-one] stands 250 to 750 µM.

Consider `O=C1/C(=C/Nc2nccs2)Sc2ccccc21` [T2/6, (2Z)-2-[(thiazole-2-ylamino)methylene]benzothiophene-3-one], for which the IC50 is less than 150 µM. On the same count and under the same terms, under `O=C1/C(=C/Nc2ncc([N+](=O)[O-])s2)Sc2ccccc21` [T2/12, (2Z)-2-[[(5-nitrothiazole-2-yl)amino]methylene]benzothiophene-3-one] stands less than 25 µM; under `O=C1/C(=C/Nc2ncc(Br)s2)Sc2ccccc21` [T2/13, (2Z)-2-[[(5-bromothiazole-2-yl)amino]methylene]benzothiophene-3-one], less than 50 µM; under `O=C1/C(=C/Nc2ncc(Cl)s2)Sc2ccccc21` [T2/14, (2Z)-2-[[(5-chlorothiazole-2-yl)amino]methylene]benzothiophene-3-one], less than 150 µM.

Take `O=C(O)c1cnc(N/C=C2\Sc3ccccc3C2=O)s1` [T2/16, 2-[[(z)-(3-oxobenzothiophene-2-ylidene)methyl]amino]thiazole-5-carboxylic acid]: the IC50 was less than 250 µM. For `COC(=O)c1csc(N/C=C2\Sc3ccccc3C2=O)n1` [T2/18, 2-[[(z)-(3-oxobenzothiophene-2-ylidene)methyl]amino]thiazole-4-carboxylic acid methylester], the IC50 is less than 150 µM. The same measure, in the same setting: next, `NC(=O)c1cnc(N/C=C2\Sc3ccccc3C2=O)s1` [T2/19, 2-[[(z)-(3-oxobenzothiophene-2-ylidene)methyl]amino]thiazole-5-carboxylic acid amide]: less than 150 µM.

Turning to `CNC(=O)c1cnc(N/C=C2\Sc3ccccc3C2=O)s1` [T2/20, n-methyl-2-[[(z)-(3-oxobenzothiophene-2-ylidene)methyl]amino]thiazole-5-carboxylic acid amide], the IC50 is less than 250 µM.

As to `COc1ccc2nc(N/C=C3\Sc4ccccc4C3=O)sc2c1` [T2/24, (2Z)-2-[[(6-methoxy-1,3-benzothiazole-2-yl)amino]methylene]benzothiophene-3-one], the IC50 is less than 150 µM. Same read-out and setting: under `O=C1/C(=C/Nc2nc3ccc([N+](=O)[O-])cc3s2)Sc2ccccc21` [T2/25, (2Z)-2-[[(6-nitro-1,3-benzothiazole-2-yl)amino]methylene]benzothiophene-3-one] stands less than 250 µM. In the case of `O=C1/C(=C/Nc2nc3c(F)cc(F)cc3s2)Sc2ccccc21` [T2/26, (2Z)-2-[[(4,6-difluoro-1,3-benzothiazole-2-yl)amino]methylene]benzothiophene-3-one], the IC50 was in the range of 250 to 750 µM. The same measure, in the same setting: next, `O=C1/C(=C/Nc2nc3ccc(C(F)(F)F)cc3s2)Sc2ccccc21` [T2/27, (2Z)-2-[[[6-(trifluoromethyl)-1,3-benzothiazole-2-yl]amino]methylene]benzothiophene-3-one]: 250 to 750 µM. Same read-out and setting: next, `O=C1/C(=C/Nc2nc3ccc(Br)cc3s2)Sc2ccccc21` [T2/28, (2Z)-2-[[(6-bromo-1,3-benzothiazole-2-yl)amino]methylene]benzothiophene-3-one]: less than 150 µM; `O=C1/C(=C/Nc2ccc3scnc3c2)Sc2ccccc21` [T2/29, (2Z)-2-[(1,3-benzothiazole-5-ylamino)methylene]benzothiophene-3-one]: 250 to 750 µM; `O=C1/C(=C/Nc2ncns2)Sc2ccccc21` [T2/30, (2Z)-2-[(1,2,4-thiadiazol-5-ylamino)methylene]benzothiophene-3-one]: less than 150 µM.

`O=C1/C(=C/Nc2nncs2)Sc2ccccc21` [T2/31, (2Z)-2-[(1,3,4-thiadiazol-2-ylamino)methylene]benzothiophene-3-one]: the half-inhibitory concentration (IC50) was less than 150 µM. The same measure, in the same setting: under `O=C1/C(=C/Nc2nnc(Br)s2)Sc2ccccc21` [T2/32, (2Z)-2-[[(5-bromo-1,3,4-thiadiazol-2-yl)amino]methylene]benzothiophene-3-one] stands less than 150 µM; under `O=C1/C(=C/Nc2ccccc2[N+](=O)[O-])Sc2ccccc21` [T2/33, (2Z)-2-[(2-nitroanilino)methylene]benzothiophene-3-one], less than 150 µM. For `O=C1/C(=C\Nc2ccc([N+](=O)[O-])cc2)Sc2ccccc21` [T2/34, (2e)-2-[(4-nitroanilino)methylene]benzothiophene-3-one], the half-maximal inhibitory concentration (IC50) lay within 250 to 750 µM. `O=C1/C(=C/Nc2cc([N+](=O)[O-])ccc2O)Sc2ccccc21` [T2/35, (2Z)-2-[(2-hydroxy-5-nitro-anilino)methylene]benzothiophene-3-one]: the IC50 is 250 to 750 µM. Same read-out and setting: under `O=C1/C(=C/Nc2cccc(Br)c2)Sc2ccccc21` [T2/37, (2Z)-2-[(3-bromoanilino)methylene]benzothiophene-3-one] stands 250 to 750 µM; under `O=C1/C(=C\Nc2cccc3ccccc23)Sc2ccccc21` [T2/39, (2e)-2-[(1-naphthylamino)methylene]benzothiophene-3-one], 250 to 750 µM. The same measure, in the same setting: under `O=C1/C(=C/Nc2ncc3ccccc3n2)Sc2ccccc21` [T2/42, (2Z)-2-[(chinazolin-2-ylamino)methylene]benzothiophene-3-one] stands 250 to 750 µM; under `O=C1/C(=C/Nc2ncccn2)Sc2ccccc21` [T2/49, (2Z)-2-[(pyrimidine-2-ylamino)methylene]benzothiophene-3-one], less than 250 µM.

One may read the IC50 as the point on the concentration scale where inhibition reaches its midpoint.
